According to ChEMBL document CHEMBL4828758, “Elucidation of Distinct Modular Assemblies of Smoothened Receptor by Bitopic Ligand Measurement” (J Med Chem, 2021):
Activity calls are given as the source filed them. No cut-off for these calls is given here.

What was measured:
Type in all cases: functional, cell-based
[1] = biological target: Protein smoothened (Mus musculus) (UniProt P56726); test: (§1) Agonist activity at SMO in mouse NIH3T3 cells incubated for 2 hrs by Bright-Glo luciferase assay
Protein smoothened [2] = biological target: T1, Protein smoothened (Mus musculus, UniProt P56726); test: as §1
Protein smoothened [3] = biological target: T1, Protein smoothened; test: Antagonist activity at SMO in mouse NIH3T3 cells preincubated for 2 hrs followed by SAG stimulation and measured after 24 hrs by Bright-Glo luciferase assay
[4] = biological target: Protein smoothened (Mus musculus) (UniProt P56726); test: Agonist activity at SMO in mouse NIH3T3 cells assessed as induction of SMO accumulation in primary cilia incubated for 12 hrs by AlexaFluor 488/ DAPI staining based immunofluorescence method
[5] = biological target: Protein smoothened (Mus musculus) (UniProt P56726); test: Agonist activity at SMO in mouse NIH3T3 cells assessed as fluorescent intensity of ciliary SMO incubated for 12 hrs by fluorescence method; conditions: filed as agonist
[6] = biological target: Protein smoothened (Mus musculus) (UniProt P56726); test: Agonist activity at SMO in mouse NIH3T3 cells assessed as induction of SMO accumulation in primary cilia incubated for 12 hrs by fluorescence method; conditions: filed as agonist

T1 sequence (P56726 whole entry): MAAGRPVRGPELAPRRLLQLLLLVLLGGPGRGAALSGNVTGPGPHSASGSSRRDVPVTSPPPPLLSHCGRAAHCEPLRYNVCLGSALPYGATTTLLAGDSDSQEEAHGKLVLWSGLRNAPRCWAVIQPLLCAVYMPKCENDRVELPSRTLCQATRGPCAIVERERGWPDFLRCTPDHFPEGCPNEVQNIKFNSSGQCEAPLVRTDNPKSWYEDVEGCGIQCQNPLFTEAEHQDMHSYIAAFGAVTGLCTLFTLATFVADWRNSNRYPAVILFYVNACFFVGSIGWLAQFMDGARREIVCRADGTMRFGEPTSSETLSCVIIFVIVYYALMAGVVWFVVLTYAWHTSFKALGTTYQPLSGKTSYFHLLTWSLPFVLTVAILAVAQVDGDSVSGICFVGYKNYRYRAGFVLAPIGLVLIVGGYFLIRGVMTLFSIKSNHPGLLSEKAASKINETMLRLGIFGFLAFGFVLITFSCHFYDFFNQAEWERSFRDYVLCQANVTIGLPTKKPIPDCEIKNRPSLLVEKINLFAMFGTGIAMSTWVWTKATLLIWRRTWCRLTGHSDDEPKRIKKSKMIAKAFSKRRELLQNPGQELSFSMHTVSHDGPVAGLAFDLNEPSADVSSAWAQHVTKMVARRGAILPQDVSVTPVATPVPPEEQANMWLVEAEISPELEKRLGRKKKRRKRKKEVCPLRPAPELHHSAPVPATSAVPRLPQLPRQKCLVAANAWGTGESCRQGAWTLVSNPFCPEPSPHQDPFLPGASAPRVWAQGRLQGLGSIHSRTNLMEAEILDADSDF
Protein smoothened (Mus musculus), sequence (P56726 whole entry): as above

CN[C@H]1CC[C@H](N(Cc2cccc(-c3ccnc(OCCOCCOCCOCCn4cc(COCCOCCOCCOCCOCCOCCOCCCCCC[C@](C)(O)C5CC[C@H]6[C@@H]7CC=C8C[C@@H](O)CC[C@]8(C)[C@H]7CC[C@]56C)nn4)c3)c2)C(=O)c2sc3ccccc3c2Cl)CC1 (stereo partly specified)
Activity [1]: inactive

CC(O)(CCCCCCOCCOCc1cn(CCOCCOCCOCCO)nn1)C1CC[C@H]2[C@@H]3CC=C4C[C@@H](O)CC[C@]4(C)[C@H]3CC[C@]12C (stereo partly specified)
EC50 (Protein smoothened [2]): > 100000 nM

CC(O)(CCCCCCOCCOCc1cn(CCOCCOCCOCCS(=O)(=O)c2ccc(C(=O)Nc3ccc(Cl)c(-c4ccccn4)c3)c(Cl)c2)nn1)C1CC[C@H]2[C@@H]3CC=C4C[C@@H](O)CC[C@]4(C)[C@H]3CC[C@]12C (stereo partly specified)
IC50 (Protein smoothened [3]): 20 nM

CN[C@H]1CC[C@H](N(Cc2cccc(-c3ccnc(OCCOCCn4cc(COCCCCCC[C@](C)(O)[C@H]5CC[C@H]6[C@@H]7CC=C8C[C@@H](O)CC[C@]8(C)[C@H]7CC[C@@]65C)nn4)c3)c2)C(=O)c2sc3ccccc3c2Cl)CC1
Activity [1]: inactive

CN[C@H]1CC[C@H](N(Cc2cccc(-c3ccnc(OCCOCCOCCOCCOCCOCCn4cc(COCCOCCOCCOCCOCCOCCOCCCCCCC(C)(O)C5CC[C@H]6[C@@H]7CC=C8C[C@@H](O)CC[C@]8(C)[C@H]7CC[C@]56C)nn4)c3)c2)C(=O)c2sc3ccccc3c2Cl)CC1 (stereo partly specified)
Activity [1]: inactive

CC(O)(CCCCCCOCCOCc1cn(CCOCCOCCOCCOCCOCCS(=O)(=O)c2ccc(C(=O)Nc3ccc(Cl)c(-c4ccccn4)c3)c(Cl)c2)nn1)C1CC[C@H]2[C@@H]3CC=C4C[C@@H](O)CC[C@]4(C)[C@H]3CC[C@]12C (stereo partly specified)
Activity [1]: inactive | IC50 (Protein smoothened [3]): 20 nM | Activity [4]: inactive

CN[C@H]1CC[C@H](N(Cc2cccc(-c3ccnc(OCCOCCOCCOCCn4cc(COCCOCCOCCOCCCCCC[C@@H](C)C5CC[C@H]6[C@@H]7CC=C8C[C@@H](O)CC[C@]8(C)[C@H]7CC[C@]56C)nn4)c3)c2)C(=O)c2sc3ccccc3c2Cl)CC1 (stereo partly specified)
EC50 (Protein smoothened [2]): 200 nM

CC(O)(CCCCCCOCCOCCOCCOCCOCc1cn(CCOCCOCCOCCOCCOCCS(=O)(=O)c2ccc(C(=O)Nc3ccc(Cl)c(-c4ccccn4)c3)c(Cl)c2)nn1)C1CC[C@H]2[C@@H]3CC=C4C[C@@H](O)CC[C@]4(C)[C@H]3CC[C@]12C (stereo partly specified)
IC50 (Protein smoothened [3]): 20 nM

CN[C@H]1CC[C@H](N(Cc2cccc(-c3ccnc(OCCOCCOCCOCCOCCn4cc(COCCOCCOCCOCCOCCOCCOCCCCCCC(C)(O)C5CC[C@H]6[C@@H]7CC=C8C[C@@H](O)CC[C@]8(C)[C@H]7CC[C@]56C)nn4)c3)c2)C(=O)c2sc3ccccc3c2Cl)CC1 (stereo partly specified)
Activity [1]: inactive

CN[C@H]1CC[C@H](N(Cc2cccc(-c3ccnc(OCCOCCOCCOCCn4cc(COCCOCCOCCOCCOCCOCCCCCC[C@](C)(O)C5CC[C@H]6[C@@H]7CC=C8C[C@@H](O)CC[C@]8(C)[C@H]7CC[C@]56C)nn4)c3)c2)C(=O)c2sc3ccccc3c2Cl)CC1 (stereo partly specified)
Activity [1]: inactive

CC(O)(CCCCCCOCCOCCOCCOCCOCCOCCOCc1cn(CCOCCOCCOCCOCCOCCS(=O)(=O)c2ccc(C(=O)Nc3ccc(Cl)c(-c4ccccn4)c3)c(Cl)c2)nn1)C1CC[C@H]2[C@@H]3CC=C4C[C@@H](O)CC[C@]4(C)[C@H]3CC[C@]12C (stereo partly specified)
IC50 (Protein smoothened [3]): 20 nM

CN[C@H]1CC[C@H](N(Cc2cccc(-c3ccnc(OCCOCCOCCOCCOCCOCCn4cc(COCCOCCOCCOCCOCCOCCOCCOCCCCCC[C@@H](C)C5CC[C@H]6[C@@H]7CC=C8C[C@@H](O)CC[C@]8(C)[C@H]7CC[C@]56C)nn4)c3)c2)C(=O)c2sc3ccccc3c2Cl)CC1 (stereo partly specified)
EC50 (Protein smoothened [2]): 200 nM

CN[C@H]1CC[C@H](N(Cc2cccc(-c3ccncc3)c2)C(=O)c2sc3ccccc3c2Cl)CC1
EC50 (Protein smoothened [2]): 16.9 nM | Activity [5]: Active | Activity [6]: Active

CN[C@H]1CC[C@H](N(Cc2cccc(-c3ccnc(OCCOCCOCCOCCn4cc(COCCO)nn4)c3)c2)C(=O)c2sc3ccccc3c2Cl)CC1
EC50 (Protein smoothened [2]): 966 nM

CN[C@H]1CC[C@H](N(Cc2cccc(-c3ccnc(OCCOCCOCCOCCn4cc(COCCOCCOCCOCCOCCCCCC[C@](C)(O)C5CC[C@H]6[C@@H]7CC=C8C[C@@H](O)CC[C@]8(C)[C@H]7CC[C@]56C)nn4)c3)c2)C(=O)c2sc3ccccc3c2Cl)CC1 (stereo partly specified)
Activity [1]: inactive

CN[C@H]1CC[C@H](N(Cc2cccc(-c3ccnc(OCCOCCOCCOCCn4cc(COCCOCCOCCCCCC[C@](C)(O)C5CC[C@H]6[C@@H]7CC=C8C[C@@H](O)CC[C@]8(C)[C@H]7CC[C@]56C)nn4)c3)c2)C(=O)c2sc3ccccc3c2Cl)CC1 (stereo partly specified)
EC50 (Protein smoothened [2]): 8 nM

CC(O)(CCCCCCOCCOCCOCCOCCOCCOCCOCCOCCOCc1cn(CCOCCOCCOCCOCCOCCS(=O)(=O)c2ccc(C(=O)Nc3ccc(Cl)c(-c4ccccn4)c3)c(Cl)c2)nn1)C1CC[C@H]2[C@@H]3CC=C4C[C@@H](O)CC[C@]4(C)[C@H]3CC[C@]12C (stereo partly specified)
IC50 (Protein smoothened [3]): 20 nM

CN[C@H]1CC[C@H](N(Cc2cccc(-c3ccnc(OCCn4cc(COCCCCCCC[C@](C)(O)[C@H]5CC[C@H]6[C@@H]7CC=C8C[C@@H](O)CC[C@]8(C)[C@H]7CC[C@@]65C)nn4)c3)c2)C(=O)c2sc3ccccc3c2Cl)CC1
Activity [1]: inactive

CN[C@H]1CC[C@H](N(Cc2cccc(-c3ccnc(OCCOCCOCCn4cc(COCCCCCCC(C)(O)C5CC[C@H]6[C@@H]7CC=C8C[C@@H](O)CC[C@]8(C)[C@H]7CC[C@]56C)nn4)c3)c2)C(=O)c2sc3ccccc3c2Cl)CC1 (stereo partly specified)
EC50 (Protein smoothened [2]): 8 nM

CC(O)(CCCCCCOCCOCc1cn(CCOCCOCCS(=O)(=O)c2ccc(C(=O)Nc3ccc(Cl)c(-c4ccccn4)c3)c(Cl)c2)nn1)C1CC[C@H]2[C@@H]3CC=C4C[C@@H](O)CC[C@]4(C)[C@H]3CC[C@]12C (stereo partly specified)
IC50 (Protein smoothened [3]): 20 nM

CN[C@H]1CC[C@H](N(Cc2cccc(-c3ccnc(OCCOCCOCCOCCn4cc(COCCCCCC[C@](C)(O)C5CC[C@H]6[C@@H]7CC=C8C[C@@H](O)CC[C@]8(C)[C@H]7CC[C@]56C)nn4)c3)c2)C(=O)c2sc3ccccc3c2Cl)CC1 (stereo partly specified)
EC50 (Protein smoothened [2]): 8 nM

CN[C@H]1CC[C@H](N(Cc2cccc(-c3ccnc(OCCOCCOCCOCCn4cc(COCCOCCC#CCCC(C)(O)C5CC[C@H]6[C@@H]7CC=C8C[C@@H](O)CC[C@]8(C)[C@H]7CC[C@]56C)nn4)c3)c2)C(=O)c2sc3ccccc3c2Cl)CC1 (stereo partly specified)
Activity [5]: Active | Activity ([4]; filed as agonist): Active | Activity [6]: Active

CN[C@H]1CC[C@H](N(Cc2cccc(-c3ccnc(OCCOCCOCCOCCOCCOCCn4cc(COCCOCCOCCOCCOCCOCCOCCOCCOCCCCCC[C@@H](C)C5CC[C@H]6[C@@H]7CC=C8C[C@@H](O)CC[C@]8(C)[C@H]7CC[C@]56C)nn4)c3)c2)C(=O)c2sc3ccccc3c2Cl)CC1 (stereo partly specified)
EC50 (Protein smoothened [2]): 200 nM

CN[C@H]1CC[C@H](N(Cc2cccc(-c3ccnc(OCCOCCOCCOCCn4cc(COCCOCCOCCOCCOCCOCCOCCCCCC[C@@H](C)C5CC[C@H]6[C@@H]7CC=C8C[C@@H](O)CC[C@]8(C)[C@H]7CC[C@]56C)nn4)c3)c2)C(=O)c2sc3ccccc3c2Cl)CC1 (stereo partly specified)
EC50 (Protein smoothened [2]): 200 nM

C[C@H](CCCCCCOCCOCc1cn(CCOCCOCCOCCOCCOCCS(=O)(=O)c2ccc(C(=O)Nc3ccc(Cl)c(-c4ccccn4)c3)c(Cl)c2)nn1)C1CC[C@H]2[C@@H]3CC=C4C[C@@H](O)CC[C@]4(C)[C@H]3CC[C@]12C (stereo partly specified)
Activity [4]: inactive

CN[C@H]1CC[C@H](N(Cc2cccc(-c3ccnc(OC)c3)c2)C(=O)c2sc3ccccc3c2Cl)CC1
EC50 (Protein smoothened [2]): 819 nM

CN[C@H]1CC[C@H](N(Cc2cccc(-c3ccnc(OCCOCCOCCOCCn4cc(COCCOCCOCCOCCCCCC[C@](C)(O)C5CC[C@H]6[C@@H]7CC=C8C[C@@H](O)CC[C@]8(C)[C@H]7CC[C@]56C)nn4)c3)c2)C(=O)c2sc3ccccc3c2Cl)CC1 (stereo partly specified)
Activity [1]: inactive

CC(O)(CCCCCCOCCOCCOCc1cn(CCOCCOCCOCCOCCOCCS(=O)(=O)c2ccc(C(=O)Nc3ccc(Cl)c(-c4ccccn4)c3)c(Cl)c2)nn1)C1CC[C@H]2[C@@H]3CC=C4C[C@@H](O)CC[C@]4(C)[C@H]3CC[C@]12C (stereo partly specified)
IC50 (Protein smoothened [3]): 20 nM

CC1=C2C[C@H]3[C@@H](CC=C4C[C@@H](O)CC[C@@]43C)[C@@H]2CC[C@]12O[C@@H]1C[C@H](C)CN[C@H]1[C@H]2C
Activity [5]: Active | Activity [6]: Active

CN[C@H]1CC[C@H](N(Cc2cccc(-c3ccnc(OCCOCCOCCOCCn4cc(COCCOCCCCCC[C@](C)(O)C5CC[C@H]6[C@@H]7CC=C8C[C@@H](O)CC[C@]8(C)[C@H]7CC[C@]56C)nn4)c3)c2)C(=O)c2sc3ccccc3c2Cl)CC1 (stereo partly specified)
Activity [1]: inactive | Activity [5]: Active | Activity ([4]; filed as agonist): Active | Activity [6]: Active

[N-]=[N+]=NCCOCCOCCOCCOCCOCCS(=O)(=O)c1ccc(C(=O)Nc2ccc(Cl)c(-c3ccccn3)c2)c(Cl)c1
IC50 (Protein smoothened [3]): 3000 nM

CN[C@H]1CC[C@H](N(Cc2cccc(-c3ccnc(OCCOCCOCCOCCOCCOCCn4cc(COCCOCCOCCOCCOCCOCCOCCCCCC[C@@H](C)C5CC[C@H]6[C@@H]7CC=C8C[C@@H](O)CC[C@]8(C)[C@H]7CC[C@]56C)nn4)c3)c2)C(=O)c2sc3ccccc3c2Cl)CC1 (stereo partly specified)
EC50 (Protein smoothened [2]): 200 nM

CC(O)(CCCCCCOCCOCc1cn(CCOCCOCCOCCOCCS(=O)(=O)c2ccc(C(=O)Nc3ccc(Cl)c(-c4ccccn4)c3)c(Cl)c2)nn1)C1CC[C@H]2[C@@H]3CC=C4C[C@@H](O)CC[C@]4(C)[C@H]3CC[C@]12C (stereo partly specified)
IC50 (Protein smoothened [3]): 20 nM

CC(O)(CCCCCCO)C1CC[C@H]2[C@@H]3CC=C4C[C@@H](O)CC[C@]4(C)[C@H]3CC[C@]12C (stereo partly specified)
EC50 (Protein smoothened [2]): > 100000 nM

CN[C@H]1CC[C@H](N(Cc2cccc(-c3ccnc(OCCOCCOCCOCCn4cc(COCCOCCCCCC[C@@H](C)C5CC[C@H]6[C@@H]7CC=C8C[C@@H](O)CC[C@]8(C)[C@H]7CC[C@]56C)nn4)c3)c2)C(=O)c2sc3ccccc3c2Cl)CC1 (stereo partly specified)
EC50 (Protein smoothened [2]): 200 nM | Activity [5]: Active | Activity ([4]; filed as agonist): Active | Activity [6]: Active

CN[C@H]1CC[C@H](N(Cc2cccc(-c3ccnc(OCCOCCOCCOCCn4cc(COCCOCCOCC(=O)N5C[C@@H](C)C[C@H]6O[C@]7(CC[C@@H]8C(=C7C)C[C@H]7[C@H]8CC=C8C[C@@H](O)CC[C@@]87C)[C@H](C)[C@@H]65)nn4)c3)c2)C(=O)c2sc3ccccc3c2Cl)CC1
Activity [5]: Active | Activity ([4]; filed as agonist): Active | Activity [6]: Active
